From ChEMBL document CHEMBL1201862, “PubChem BioAssay data set” (2004)
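Briefly, cells in 96-well plates were exposed to five compound concentrations for 48 h, and endpoints were estimated by linear interpolation. GI50 is the concentration that inhibits growth by half.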 The source made the active and inactive calls. No stated cut-off is given here; in the data, active = GI50 up to about 1.1 µM and inactive = higher.

Assays:
Experiment in all cases: growth of human tumour cells (NCI), 48 h
[1] = system: A498
[2] = system: CCRF-CEM
[3] = system: COLO 205
[4] = system: HCC 2998
[5] = system: HL-60
[6] = system: KM12
[7] = system: LOX IMVI
[8] = system: LXFL 529
[9] = system: M14
[10] = system: MOLT-4
[11] = system: Malme-3M
[12] = system: NCI-H23
[13] = system: OVCAR-3
[14] = system: SF-268
[15] = system: SF-295
[16] = system: SK-OV-3
[17] = system: SW-620
[18] = system: UACC-257

Measured: GI50

O=C(COc1ccc(Cl)cc1)N1N=C(c2ccc(Cl)cc2)CC1(O)c1ccccc1 (centres undefined)
inactive: [1] 13.5 µM | [2] 16.7 µM | [3] 21 µM | [4] > 37.2 µM | [5] 6.5 µM | [6] 14.2 µM | [7] 12.6 µM | [8] 15 µM | [9] 18.1 µM | [10] 4.95 µM | [11] 20.2 µM | [12] 13.1 µM | [13] 16.3 µM | [14] > 43.9 µM | [15] 23.8 µM | [16] 19.5 µM | [17] 21.2 µM | [18] 15.8 µM

O=C1C2=C(c3ccccc31)C(c1cccc(Cl)c1)NC(S)=N2 (centres undefined)
inactive: [1] > 100 µM | [2] > 100 µM | [3] > 100 µM | [4] > 100 µM | [5] > 100 µM | [6] 45.9 µM | [8] > 100 µM | [9] > 100 µM | [10] 91.8 µM | [11] > 100 µM | [12] > 100 µM | [13] > 100 µM | [14] > 100 µM | [15] > 100 µM | [16] > 100 µM | [17] > 100 µM | [18] > 100 µM

CCOc1ccc(/N=N/c2c(-c3ccccc3)nn(C(=O)CC(=O)Nc3cccc(C)c3)c2-c2ccccc2)cc1
inactive: [2] 76.9 µM | [3] > 100 µM | [4] 26.6 µM | [5] > 100 µM | [6] 41.5 µM | [7] > 100 µM | [8] > 100 µM | [9] > 100 µM | [10] > 100 µM | [11] > 100 µM | [12] > 100 µM | [13] > 100 µM | [14] 39 µM | [15] > 100 µM | [16] > 100 µM | [17] > 100 µM | [18] > 100 µM

CCCCCCCCCCCCCC(=O)OCC1OC(=O)C(O)C1O (centres undefined)
inactive: [1] > 100 µM | [2] > 100 µM | [3] > 100 µM | [4] > 100 µM | [5] > 100 µM | [6] > 100 µM | [7] > 100 µM | [8] > 100 µM | [9] > 100 µM | [10] > 100 µM | [11] > 100 µM | [12] > 100 µM | [13] > 100 µM | [14] > 100 µM | [15] 88.7 µM | [16] > 100 µM | [17] > 100 µM | [18] > 100 µM

O=C1C=CC(=O)N1Nc1ccc([N+](=O)[O-])cc1[N+](=O)[O-]
inactive: [1] 62.1 µM | [2] 14 µM | [3] > 42.8 µM | [4] > 100 µM | [5] 25.8 µM | [6] > 100 µM | [7] > 100 µM | [8] > 44.5 µM | [9] 19.9 µM | [10] 33.3 µM | [11] 16.8 µM | [12] > 100 µM | [13] 98.4 µM | [14] > 100 µM | [15] > 100 µM | [16] > 100 µM | [17] > 67.3 µM | [18] > 56.2 µM

Clc1ccc2c(c1)[nH]c1c2nc2sccn21
inactive: [1] > 100 µM | [2] > 100 µM | [3] > 100 µM | [4] > 100 µM | [5] > 100 µM | [6] > 100 µM | [7] > 100 µM | [8] > 100 µM | [9] > 100 µM | [10] > 100 µM | [11] > 100 µM | [12] > 100 µM | [13] > 100 µM | [14] > 100 µM | [15] > 100 µM | [16] > 100 µM | [17] > 100 µM | [18] > 100 µM

CC(C)N(C(=O)C1(C)CC1)C(C)C
inactive: [1] > 100 µM | [2] > 100 µM | [3] > 100 µM | [4] > 100 µM | [5] > 100 µM | [6] > 100 µM | [8] > 100 µM | [9] > 100 µM | [10] > 100 µM | [11] > 100 µM | [12] > 100 µM | [13] > 100 µM | [14] > 100 µM | [15] > 100 µM | [16] > 100 µM | [17] > 100 µM | [18] > 100 µM

COc1cc(OC)cc(C(=O)Cc2c(C(=O)c3ccccc3)c3ccccc3n2C(=O)c2ccccc2)c1
inactive: [1] 13.2 µM | [2] 16 µM | [3] 28.6 µM | [4] 43.4 µM | [5] 34.5 µM | [6] 33.7 µM | [7] 31.8 µM | [8] 9.95 µM | [9] 32.2 µM | [10] 9.4 µM | [11] 38.5 µM | [12] 14.4 µM | [13] 21.3 µM | [14] 65.3 µM | [15] 19.5 µM | [16] 22.8 µM | [17] 37.5 µM

CC(=O)C1C(=O)NC(=O)C1=O (centres undefined)
inactive: [1] > 100 µM | [3] > 100 µM | [4] > 100 µM | [6] > 100 µM | [7] > 100 µM | [8] > 100 µM | [9] > 100 µM | [11] > 100 µM | [12] > 100 µM | [13] > 100 µM | [14] > 100 µM | [15] > 100 µM | [16] > 100 µM | [17] 29.2 µM | [18] > 100 µM

COC(=O)CC(=O)NCC1=CCC(=O)CC1
inactive: [1] > 100 µM | [2] > 100 µM | [3] > 100 µM | [4] > 100 µM | [5] > 100 µM | [6] > 100 µM | [7] > 100 µM | [8] > 100 µM | [9] > 100 µM | [10] > 100 µM | [11] > 100 µM | [12] > 100 µM | [13] > 100 µM | [14] > 100 µM | [15] > 100 µM | [16] > 100 µM | [17] > 100 µM | [18] > 100 µM

COc1ccc(CCCN2c3ccccc3Sc3ccccc32)cc1
inactive: [1] > 100 µM | [2] 51.2 µM | [3] 43.4 µM | [4] > 100 µM | [5] 41.3 µM | [6] > 100 µM | [7] 52.8 µM | [8] 73.1 µM | [9] > 100 µM | [10] 19.6 µM | [11] > 100 µM | [12] > 100 µM | [14] > 100 µM | [15] > 100 µM | [16] > 100 µM | [17] 22.8 µM | [18] > 100 µM

NS(=O)(=O)c1ccc(NC(=O)COC(=O)c2cccc3c(=O)c4ccccc4[nH]c23)cc1
inactive: [1] 17.9 µM | [2] 38.5 µM | [3] > 88.3 µM | [4] 39.4 µM | [5] > 100 µM | [6] 31.6 µM | [7] 13.6 µM | [8] 7.93 µM | [9] 61.4 µM | [10] 14.3 µM | [11] 17.9 µM | [12] 21.4 µM | [13] 20.5 µM | [14] 15.9 µM | [15] 23.9 µM | [16] 18.9 µM | [17] 52.7 µM | [18] 57.3 µM

C[P+]1(Cc2ccccc2)CCCC1
inactive: [1] > 100 µM | [2] > 100 µM | [3] > 100 µM | [4] 71.1 µM | [5] > 100 µM | [6] > 100 µM | [7] > 100 µM | [8] > 100 µM | [9] > 100 µM | [10] > 100 µM | [11] 62.8 µM | [12] > 100 µM | [13] > 100 µM | [15] > 100 µM | [16] > 100 µM | [17] > 100 µM | [18] > 100 µM

CC(C)CN(CC(C)C)C(=O)C1CCCC[C@@H]1C(=O)O (some centres undefined)
inactive: [1] > 100 µM | [2] > 100 µM | [3] > 100 µM | [4] > 100 µM | [5] > 100 µM | [6] > 100 µM | [7] > 100 µM | [8] > 100 µM | [9] > 100 µM | [10] > 100 µM | [11] > 100 µM | [12] > 100 µM | [13] > 100 µM | [14] > 100 µM | [15] > 100 µM | [16] > 100 µM | [17] > 100 µM | [18] > 100 µM

Nc1nc(-c2ccccc2)cc(-c2cc(Cl)ccc2O)n1
inactive: [1] > 100 µM | [2] > 100 µM | [3] > 100 µM | [4] > 100 µM | [5] > 100 µM | [6] 50.9 µM | [7] 54 µM | [8] 48.3 µM | [9] > 100 µM | [10] > 100 µM | [11] > 100 µM | [12] 45.7 µM | [13] 35.7 µM | [14] 49.4 µM | [15] 83.6 µM | [16] 34.2 µM | [17] > 100 µM | [18] > 100 µM

CC1=C(C(=O)Nc2ccc([N+](=O)[O-])cc2)C(c2ccco2)C(C(=O)Nc2ccc([N+](=O)[O-])cc2)=C(C)N1
inactive: [1] 10.5 µM | [2] 5.18 µM | [3] 15.8 µM | [4] 8.77 µM | [5] 5.18 µM | [6] 6.41 µM | [7] 19.6 µM | [8] 6.75 µM | [9] 21.9 µM | [10] 4.33 µM | [11] 12.4 µM | [12] 13.4 µM | [13] 11.2 µM | [14] 21.3 µM | [15] 28.1 µM | [16] 9.35 µM | [17] 24.4 µM | [18] 18.5 µM
